Activity calls are given as the source filed them. For most assays here, no stated cut-off is given here; in the data, actives have a measured EC50 and inactives only a lower limit.
How the values were obtained:
cells [1] = format: functional, cell-based
cells [2] = format: functional, cell-based; remark: listed apart in the source
[3] = target: T1, Calpain-2 catalytic subunit (Sus scrofa, UniProt P43367); test: pig calpain II inhibitor potency, dose response, biochemical, fluorogenic peptide substrate (AID 1420); format: functional
T1 sequence (P43367 whole entry): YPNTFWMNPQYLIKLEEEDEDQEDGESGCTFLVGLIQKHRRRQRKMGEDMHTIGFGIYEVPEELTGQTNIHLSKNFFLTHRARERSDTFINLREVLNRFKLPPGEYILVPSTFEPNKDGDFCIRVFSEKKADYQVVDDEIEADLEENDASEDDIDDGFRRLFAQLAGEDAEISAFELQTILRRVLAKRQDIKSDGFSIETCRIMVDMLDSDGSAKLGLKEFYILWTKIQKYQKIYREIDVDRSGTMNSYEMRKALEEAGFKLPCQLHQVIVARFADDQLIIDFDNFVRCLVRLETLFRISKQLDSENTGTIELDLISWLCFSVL

[4] = cytotoxicity toward NIH3T3 fibroblasts, dose response, counter-screen, cell-based, ATP luminescence, mouse fibroblasts (AID 2010); format: functional;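 further: cells exposed to compound for about 90 hours before reading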
[5] = target: T2, Heat shock factor protein 1 (Mus musculus, UniProt P38532); test: HSF1 potentiators in luciferase reporter cells, confirmation, cell-based, NIH3T3, luminescence, dose retest (AID 435004); format: functional;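 further: stress induced by proteasome inhibitor MG132 added 30 min after compound; luciferase reporter driven by HSF1 response element in NIH3T3 cells; actives raise luminescence as potentiators of the MG132 stress response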
T2 sequence (P38532 whole entry): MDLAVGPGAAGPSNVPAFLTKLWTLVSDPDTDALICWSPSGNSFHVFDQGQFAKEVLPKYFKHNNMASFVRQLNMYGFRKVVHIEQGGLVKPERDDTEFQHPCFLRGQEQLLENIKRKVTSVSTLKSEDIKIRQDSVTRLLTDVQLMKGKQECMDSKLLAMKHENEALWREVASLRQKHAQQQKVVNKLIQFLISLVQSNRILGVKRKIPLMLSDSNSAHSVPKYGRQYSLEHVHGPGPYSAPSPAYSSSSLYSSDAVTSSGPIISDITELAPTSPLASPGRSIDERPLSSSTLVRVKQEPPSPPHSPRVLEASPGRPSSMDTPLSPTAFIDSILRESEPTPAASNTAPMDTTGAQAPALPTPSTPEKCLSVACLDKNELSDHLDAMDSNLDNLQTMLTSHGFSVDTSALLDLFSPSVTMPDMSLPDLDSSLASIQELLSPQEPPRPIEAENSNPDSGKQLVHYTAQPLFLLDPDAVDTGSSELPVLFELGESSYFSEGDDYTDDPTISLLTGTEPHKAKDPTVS

[6] = inhibitors of intracellular T. cruzi replication, confirmation, NIH3T3 host cells, beta-gal luminescence (AID 2044); format: functional, cell-based;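 further: intracellular parasites grown in NIH/3T3 mouse fibroblasts as host cells; luminescent beta-galactosidase reporter signal from transgenic T. cruzi replicating inside host cells; inhibitors lower the luminescence signal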
Fatty acid synthase [7] = target: T3, Fatty acid synthase (Homo sapiens, UniProt P49327); test: FAS thioesterase domain inhibitors, dose response, biochemical, kinetic fluorescence intensity (AID 624326); format: functional;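 further: rate of fluorescence rise from hydrolysis of a fluorogenic O-methyl fluorescein ester substrate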
T3 sequence (P49327 whole entry, the tested form may be a part): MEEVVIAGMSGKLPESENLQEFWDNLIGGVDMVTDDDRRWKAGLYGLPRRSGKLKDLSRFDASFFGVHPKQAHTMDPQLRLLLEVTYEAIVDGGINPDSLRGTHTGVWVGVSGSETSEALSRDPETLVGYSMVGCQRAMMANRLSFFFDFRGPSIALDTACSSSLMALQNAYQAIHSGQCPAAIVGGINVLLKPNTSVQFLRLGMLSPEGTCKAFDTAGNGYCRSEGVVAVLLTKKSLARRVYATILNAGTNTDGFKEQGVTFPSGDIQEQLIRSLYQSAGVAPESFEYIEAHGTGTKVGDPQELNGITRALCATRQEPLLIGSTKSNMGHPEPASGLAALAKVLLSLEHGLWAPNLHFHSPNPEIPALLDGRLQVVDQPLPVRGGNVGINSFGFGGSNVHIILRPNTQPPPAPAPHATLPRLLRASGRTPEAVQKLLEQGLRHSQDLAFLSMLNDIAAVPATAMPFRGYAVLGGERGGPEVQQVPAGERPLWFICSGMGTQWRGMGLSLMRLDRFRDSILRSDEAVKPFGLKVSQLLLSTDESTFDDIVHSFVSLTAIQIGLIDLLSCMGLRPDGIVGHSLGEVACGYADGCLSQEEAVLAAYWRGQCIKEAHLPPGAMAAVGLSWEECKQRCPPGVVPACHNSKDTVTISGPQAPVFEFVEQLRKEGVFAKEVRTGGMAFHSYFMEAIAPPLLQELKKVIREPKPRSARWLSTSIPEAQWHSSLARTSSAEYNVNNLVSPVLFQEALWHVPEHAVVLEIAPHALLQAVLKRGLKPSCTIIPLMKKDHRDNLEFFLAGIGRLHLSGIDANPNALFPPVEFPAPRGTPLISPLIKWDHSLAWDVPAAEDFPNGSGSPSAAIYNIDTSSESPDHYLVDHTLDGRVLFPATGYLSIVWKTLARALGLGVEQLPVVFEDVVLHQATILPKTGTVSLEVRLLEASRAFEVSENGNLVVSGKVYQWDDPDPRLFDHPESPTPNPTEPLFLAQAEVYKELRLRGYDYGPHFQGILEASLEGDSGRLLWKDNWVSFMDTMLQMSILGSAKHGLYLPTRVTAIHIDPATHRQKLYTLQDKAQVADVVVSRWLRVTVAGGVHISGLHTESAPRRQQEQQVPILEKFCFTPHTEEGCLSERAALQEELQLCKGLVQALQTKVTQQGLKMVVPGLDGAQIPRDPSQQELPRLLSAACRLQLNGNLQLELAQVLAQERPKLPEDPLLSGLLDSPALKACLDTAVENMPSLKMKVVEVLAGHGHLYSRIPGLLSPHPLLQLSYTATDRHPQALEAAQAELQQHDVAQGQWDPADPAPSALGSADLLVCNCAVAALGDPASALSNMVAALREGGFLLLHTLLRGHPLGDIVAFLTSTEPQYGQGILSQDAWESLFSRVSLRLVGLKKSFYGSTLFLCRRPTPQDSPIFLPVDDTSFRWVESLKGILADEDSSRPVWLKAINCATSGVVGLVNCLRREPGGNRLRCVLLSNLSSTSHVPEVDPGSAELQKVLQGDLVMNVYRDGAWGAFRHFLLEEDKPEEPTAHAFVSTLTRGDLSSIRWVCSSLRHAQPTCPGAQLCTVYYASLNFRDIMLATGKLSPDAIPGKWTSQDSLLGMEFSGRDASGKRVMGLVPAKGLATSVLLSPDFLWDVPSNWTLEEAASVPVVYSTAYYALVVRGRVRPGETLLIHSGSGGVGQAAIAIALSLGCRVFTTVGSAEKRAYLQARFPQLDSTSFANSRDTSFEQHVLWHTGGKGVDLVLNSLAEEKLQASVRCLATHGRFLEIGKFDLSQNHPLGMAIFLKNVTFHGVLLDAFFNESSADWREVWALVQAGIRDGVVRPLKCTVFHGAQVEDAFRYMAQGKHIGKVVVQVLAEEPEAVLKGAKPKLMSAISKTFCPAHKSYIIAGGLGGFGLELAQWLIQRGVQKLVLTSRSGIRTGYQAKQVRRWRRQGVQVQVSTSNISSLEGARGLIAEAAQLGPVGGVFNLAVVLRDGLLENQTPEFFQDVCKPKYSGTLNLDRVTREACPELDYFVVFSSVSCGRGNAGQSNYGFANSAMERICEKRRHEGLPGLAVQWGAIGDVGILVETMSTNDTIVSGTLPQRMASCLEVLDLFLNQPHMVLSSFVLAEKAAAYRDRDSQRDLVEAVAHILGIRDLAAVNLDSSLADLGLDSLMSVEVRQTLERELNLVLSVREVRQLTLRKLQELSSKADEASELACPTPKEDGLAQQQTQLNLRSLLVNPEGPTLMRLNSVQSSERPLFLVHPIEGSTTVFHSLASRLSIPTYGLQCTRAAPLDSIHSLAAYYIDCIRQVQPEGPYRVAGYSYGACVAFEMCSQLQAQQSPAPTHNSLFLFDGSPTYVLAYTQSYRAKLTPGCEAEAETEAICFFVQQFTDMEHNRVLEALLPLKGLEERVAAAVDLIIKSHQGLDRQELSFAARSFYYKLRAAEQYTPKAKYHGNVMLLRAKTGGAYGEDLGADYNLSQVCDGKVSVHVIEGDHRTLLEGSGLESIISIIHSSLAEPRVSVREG

Fatty acid synthase [8] = target: T3, Fatty acid synthase; test: FAS thioesterase domain inhibitors, dose response, biochemical, endpoint fluorescence intensity, uHTS hits (AID 624327); format: functional;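 further: fluorescence from hydrolysis of an O-methyl fluorescein acyl ester substrate by the enzyme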
[9] = Luminescence Cell-Based Dose Response HTS to Identify Activators of Luciferase Translation or Activity in H4 […] Cells. [Related pubchem assays: 1829 (Project Summary), 1814 (Primary HTS)]; format: functional
H4 = test: Luminescence Cell-Based Dose Response HTS to Identify Activators of 5'UTR Stem-Loop Driven Prion Protein mRNA Translation in H4 Neuroglioblastoma Cells. [Related pubchem assays: 1829 (Project Summary), 1814 (Primary HTS)]; format: functional; conditions: Homo sapiens
[10] = Luminescence Cell-Based Dose Retest to Confirm Inhibitors of Cancer Stem Cells. [Related pubchem assays (depositor defined):AID2717, AID2721]; format: functional; conditions: Homo sapiens
INS1 = test: beta cell apoptosis inhibitors, cytokine rescue, dose response, luminescence, retest (AID 449756); format: functional, cell-based; conditions: Rattus norvegicus;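 further: cell death triggered by IL-1 beta plus TNF-alpha plus IFN-gamma mixture; protective hits raise ATP signal compared with cytokine alone wells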
[11] = target: Luciferin 4-monooxygenase (Photinus pyralis, UniProt P08659); test: firefly luciferase enzyme inhibitors, dose response, biochemical, luminescence (AID 1891)
Chain of Luciferin 4-monooxygenase (P08659 whole entry): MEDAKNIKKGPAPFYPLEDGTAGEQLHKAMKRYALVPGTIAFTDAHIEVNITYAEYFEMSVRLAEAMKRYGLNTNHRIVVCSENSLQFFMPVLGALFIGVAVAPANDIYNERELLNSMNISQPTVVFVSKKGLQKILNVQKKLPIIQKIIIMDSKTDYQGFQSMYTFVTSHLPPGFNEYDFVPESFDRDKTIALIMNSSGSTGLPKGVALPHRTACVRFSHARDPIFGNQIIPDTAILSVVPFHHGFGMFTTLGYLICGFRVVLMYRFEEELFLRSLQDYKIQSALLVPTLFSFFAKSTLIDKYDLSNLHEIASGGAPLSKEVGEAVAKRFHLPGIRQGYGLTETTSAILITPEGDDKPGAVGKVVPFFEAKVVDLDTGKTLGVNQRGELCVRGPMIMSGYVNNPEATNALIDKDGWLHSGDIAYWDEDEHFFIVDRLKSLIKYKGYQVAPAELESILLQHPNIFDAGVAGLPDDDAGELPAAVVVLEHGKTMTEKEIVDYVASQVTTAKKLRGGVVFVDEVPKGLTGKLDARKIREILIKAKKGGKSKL

[12] = Luminescence Cell-Based Dose Confirmation HTS to Identify Inhibitors of Platelet Dense Granule Release. [Related pubchem assays: 1663 (Primary HTS), 1678 (Summary of Project)]; format: functional
Protein skinhead-1 = target: T4, Protein skinhead-1 (Caenorhabditis elegans, UniProt P34707); format: functional
T4 sequence (P34707 whole entry): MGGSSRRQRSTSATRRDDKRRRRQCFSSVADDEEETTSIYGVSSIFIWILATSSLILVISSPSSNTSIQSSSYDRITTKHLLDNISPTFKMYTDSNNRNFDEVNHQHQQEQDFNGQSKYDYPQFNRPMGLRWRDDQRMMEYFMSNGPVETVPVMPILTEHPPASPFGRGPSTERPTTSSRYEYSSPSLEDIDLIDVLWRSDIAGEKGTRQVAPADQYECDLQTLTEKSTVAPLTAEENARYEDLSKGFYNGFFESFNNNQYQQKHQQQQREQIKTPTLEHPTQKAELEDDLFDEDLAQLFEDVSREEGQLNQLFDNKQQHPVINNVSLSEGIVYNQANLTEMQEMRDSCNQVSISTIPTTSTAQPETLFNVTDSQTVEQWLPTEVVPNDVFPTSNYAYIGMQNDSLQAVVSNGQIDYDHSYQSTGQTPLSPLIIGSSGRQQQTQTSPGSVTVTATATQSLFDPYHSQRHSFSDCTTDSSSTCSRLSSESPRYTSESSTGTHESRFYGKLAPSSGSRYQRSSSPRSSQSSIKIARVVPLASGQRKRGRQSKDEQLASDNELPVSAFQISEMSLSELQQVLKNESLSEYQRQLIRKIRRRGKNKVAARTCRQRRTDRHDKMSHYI

COc1ccc(C(=O)N2CCCCCC2)cc1S(=O)(=O)N1CCOCC1
EC50 (cells [1]): > 350 µM (not active) | EC50 (cells [2]): > 350 µM (not active)

COc1cccc(C(=O)C2CCCN(Cc3ccc4nsnc4c3)C2)c1 (stereo not drawn)
EC50 (cells [1]): > 350 µM (not active) | EC50 (cells [2]): > 350 µM (not active)

CC1CC(=O)c2cnc(NCC3CCCO3)nc2C1 (stereo not drawn)
IC50 [3]: 6.33 µM (not active)

c1ccc(CCc2ccncc2)cc1
EC50 [4]: > 60 µM (not active) | EC50 [5]: > 260 µM (inactive) | EC50 [6]: 1.52 µM (active)

COc1ccc(C(=O)NCC(=O)OCC(=O)c2ccc3c(c2)NC(=O)CO3)cc1
EC50 [5]: > 260 µM (inactive)

O=C(NNS(=O)(=O)c1ccc([N+](=O)[O-])cc1)c1ccc([N+](=O)[O-])cc1
IC50 (Fatty acid synthase [7]): 4.24 µM (active) | IC50 (Fatty acid synthase [8]): 4.95 µM (active)

ON=C1c2cc(OCCN3CCCCC3)ccc2-c2ccc(OCCN3CCCCC3)cc21
EC50 (cells [1]): > 350 µM (not active) | EC50 [4]: > 60 µM (not active) | EC50 [9]: > 120 µM (not active) | EC50 (cells [2]): > 350 µM (not active) | EC50 (H4): > 120 µM (not active) | EC50 [6]: 1.43 µM (active)

FC(F)(F)c1cccc(N2CCN(C(S)=NC3CCCC3)CC2)c1
IC50 [3]: 7.79 µM (not active)

Cc1ccc(NC(=O)Cn2cnc3c(=O)n(C)c(=O)n(C)c32)c(C)c1
EC50 (cells [1]): > 350 µM (not active) | EC50 (cells [2]): > 350 µM (not active)

Nc1ccc(C(=O)Nc2ccc3[nH]c(-c4ccncc4)nc3c2)cc1
EC50 (cells [1]): > 350 µM (not active) | EC50 (cells [2]): 49.5 µM (active)

Cc1ccccc1CCN(C(=O)Cn1nnc2ccccc21)C(C(=O)NCC1CCCO1)c1nc2ccccc2n1C (stereo not drawn)
IC50 [3]: 29.6 µM (not active)

O=C(COC(=O)c1cc([N+](=O)[O-])ccc1N1CCOCC1)Nc1c(Cl)cccc1C(F)(F)F
IC50 (Fatty acid synthase [7]): 8.39 µM (active) | IC50 (Fatty acid synthase [8]): 8.05 µM (active)

CCOC(=O)N1CCN(c2ccc(C(=O)c3cccc(F)c3)cc2)CC1
IC50 [3]: 14.3 µM (not active) | AC50 [10]: 3.36 µM (active)

COc1ccc(/C=C/C(=O)c2ccc([N+](=O)[O-])o2)cc1
AC50 (INS1): 6.75 µM (active) | AC50 [10]: 1.31 µM (active)

CCCCC(=O)OCC(=O)c1[nH]c(C)c(C(C)=O)c1C
EC50 [11]: > 112 µM (not active) | IC50 [3]: 21.5 µM (not active) | EC50 [12]: 0.816 µM (active)

COC(=O)N1C(=O)[C@](CC(C)C)(c2ccccc2)N1C(=O)OC
IC50 (Fatty acid synthase [7]): 0.385 µM (active) | IC50 (Fatty acid synthase [8]): 0.544 µM (active)

COc1ccc(CCNC(=O)COC(=O)CCC(=O)c2ccc(F)cc2)cc1OC
EC50 (cells [1]): > 350 µM (not active) | EC50 (cells [2]): > 350 µM (not active)

C=C1CCC[C@]2(C)C[C@H]3OC(=O)C(CNC(CC)CO)[C@H]3CC12 (stereo partly drawn)
EC50 [5]: > 260 µM (inactive)

CCCCn1c(=O)c2c(=O)cc(O)oc2c2ccccc21
EC50 (cells [1]): > 350 µM (not active) | EC50 (cells [2]): > 350 µM (not active)

Cc1nc2scc(-c3ccccc3)c2c(=O)o1
IC50 (Fatty acid synthase [7]): 80 µM (inactive) | IC50 (Fatty acid synthase [8]): 5.75 µM (active)

Cc1nn(-c2ccc(F)cc2)c2sc(C(=O)N3CCCCCC3)cc12
IC50 (Protein skinhead-1): > 100 µM (inactive) | IC50 [3]: > 50 µM (not active)

COc1ccc(Nc2nc(-c3ccccc3O)nc3ccccc23)cc1
AC50 [10]: 2.75 µM (active)

CC(C)Cn1c(SCC(=O)NC(=O)Nc2ccc3c(c2)OCCO3)nc2ccccc2c1=O
IC50 [3]: > 50 µM (not active)

O=S(=O)(c1ccc(Cl)cc1)N1CCCC(c2nc(-c3ccc(F)cc3)no2)C1 (stereo not drawn)
IC50 (Fatty acid synthase [7]): 6.27 µM (active) | IC50 (Fatty acid synthase [8]): 5.59 µM (active)

O=C(O)c1cccnc1Sc1ccccc1
EC50 [5]: > 260 µM (inactive)

CC(=O)Cn1c(=O)c2c(nc3n2CCCN3Cc2ccccc2)n(C)c1=O
EC50 (cells [1]): > 350 µM (not active) | EC50 (cells [2]): > 350 µM (not active)

CCn1c(=O)c(C(=O)NCc2ccccc2OC)c(O)c2ccccc21
AC50 [10]: 1.26 µM (active)

Cc1ccc(NC(=O)Nc2cccc(F)c2)nc1
EC50 (cells [1]): 11.8 µM (active) | EC50 (cells [2]): > 350 µM (not active)

C=CCSc1nnc(-c2ccc([N+](=O)[O-])cc2)o1
IC50 [3]: 34.3 µM (not active)

COc1c(Br)cc(Br)cc1C(=O)O
EC50 [5]: > 260 µM (inactive)

COC(=O)c1cccc(C(=O)N2CCCC(C(=O)c3ccccc3OC)C2)c1 (stereo not drawn)
EC50 [5]: > 260 µM (inactive)

CC(C=Cc1ccccc1)=NNS(=O)(=O)c1ccc([N+](=O)[O-])cc1
IC50 (Fatty acid synthase [7]): 6.23 µM (active) | IC50 (Fatty acid synthase [8]): 9.36 µM (active)

C[C@@H]1CN([C@H](C)CO)C(=O)c2cccc(NC(=O)NC3CCCCC3)c2O[C@@H]1CN(C)C(=O)Nc1ccc(C(F)(F)F)cc1
IC50 (Fatty acid synthase [7]): 2.26 µM (active) | IC50 (Fatty acid synthase [8]): 2.09 µM (active)

COc1ccc(C2=CC(=O)CC(c3ccc(F)cc3)C2)cn1 (stereo not drawn)
EC50 [5]: > 260 µM (inactive)

Cc1ccc(C(=O)N/C(=C\c2cn(S(=O)(=O)N(C)C)c3ccccc23)C(=O)N2CCCC2)cc1
IC50 (Fatty acid synthase [7]): 1.23 µM (active) | IC50 (Fatty acid synthase [8]): 1.58 µM (active)

COCCNC(=S)N/N=C/c1ccc(N2CCOCC2)cc1
EC50 [5]: > 260 µM (inactive)

O=C(CN1CCN(S(=O)(=O)c2ccc(Cl)c(C(F)(F)F)c2)CC1)NC(=O)NC1CCCCC1
IC50 (Fatty acid synthase [7]): 37.1 µM (inactive) | IC50 (Fatty acid synthase [8]): 3.5 µM (active)

CCc1nnc(S)n1/N=C/c1ccc(-c2ccc(Br)cc2)o1
EC50 (cells [1]): > 350 µM (not active) | EC50 (cells [2]): > 350 µM (not active)
